# Reference: patent publication US20060069132A1, “Azolecarboxamide herbicides” (priority 2004, published 2006)
# Read-outs that look alike come from different tables or passages of the source.
# Assays:
# large crabgrass [1] = test: Test C pre-/postemergence herbicide test; type: in vivo, Digitaria sanguinalis; conditions: for Crabgrass, Large plant response rating: Preemergence, scale 0 to 100, 0 no effect, 100 complete control
# Summary of the method: (§1)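 Preemergence: seeds planted and treated with compound in non-phytotoxic solvent with surfactant; postemergence: plants at 2 to 18 cm (1- to 4-leaf stage) sprayed likewise. Kept in greenhouse 12 to 14 days, then visually rated against controls, 0 (no effect) to 100 (complete control).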
# rice = test: Test B pre-/postemergence herbicide test; type: in vivo, Oryza sativa
# Summary of the method: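 Plants compared with untreated controls 13–15 days post-treatment and given a visual 0–100 injury score. Applications: preemergence to seeds; postemergence at 1- to 4-leaf (2–18 cm); paddy species flooded, 2-leaf stage. Vehicle non-phytotoxic, surfactant included.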
# velvetleaf = test: Test C pre-/postemergence herbicide test; type: in vivo, Abutilon theophrasti; conditions: for Velvetleaf plant response rating: Preemergence, scale 0 to 100, 0 no effect, 100 complete control
# Summary of the method: as §1
# redroot pigweed = test: Test A pre-/postemergence herbicide test; type: in vivo, Amaranthus retroflexus; conditions: for pest or weed control at 500 g/ha / pest or weed control at 2000 g/ha: Amaranthus retroflexus, 240 h
# Summary of the method: (§2)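 Sandy loam soil given preemergence directed spray; plants at 2 to 10 cm, one- to two-leaf stage, sprayed to runoff postemergence, compounds in non-phytotoxic solvent with surfactant. Injury rated visually versus untreated controls after about ten greenhouse days, 0 (no effect) to 100 (complete control); dash means not tested.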
# large crabgrass [2] = test: Test A pre-/postemergence herbicide test; type: in vivo, Digitaria sanguinalis; conditions: for pest or weed control at 500 g/ha / pest or weed control at 2000 g/ha: Digitaria sanguinalis, 240 h
# Summary of the method: as §2
# pigweed = test: Test C pre-/postemergence herbicide test; type: in vivo, Amaranthus retroflexus; conditions: for Pigweed plant response rating: Preemergence, scale 0 to 100, 0 no effect, 100 complete control
# Summary of the method: as §1
# [3] = tested on: common (oilseed) sunflower; test: Test C pre-/postemergence herbicide test; type: in vivo, Helianthus annuus; conditions: for Sunflower plant response rating: Preemergence, scale 0 to 100, 0 no effect, 100 complete control
# Summary of the method: as §1
# goosegrass = test: Test C pre-/postemergence herbicide test; type: in vivo, Eleusine indica; conditions: for Goosegrass plant response rating: Preemergence, scale 0 to 100, 0 no effect, 100 complete control
# Summary of the method: as §1
# [4] = 62 g ai/ha, preemergence, scale 0 to 100
# [5] = 125 g ai/ha, scale 0 (no effect) to 100 (complete control), visual, 12 to 14 days, preemergence
# [6] = 250 g ai/ha, scale 0-100, preemergence
# [7] = Postemergence, 500 g ai/ha, 0 to 100 scale, 0 no effect, 100 complete control
# [8] = Postemergence, 2000 g ai/ha, 0 to 100 scale, 0 no effect, 100 complete control
# [9] = Preemergence, 2000 g ai/ha, visual rating, 0 to 100 scale (0 no effect, 100 complete control)
# [10] = preemergence, 500 g ai/ha, visual injury, 0 to 100 scale (0 no effect, 100 complete control)
# [11] = 250 g ai/ha, scale 0 to 100 (0 no effect, 100 complete control), visual, 12 to 14 days, preemergence
# [12] = Preemergence, 500 g ai/ha, visual rating, 0 to 100 scale (0 no effect, 100 complete control)
# [13] = Preemergence, 2000 g ai/ha, 0 to 100 scale, 0 no effect, 100 complete control
smiles,measurement,setting,value
"CCN1N=C(C(C)(C)C)CC1C(=O)Nc1cc(C(=O)N(C)C)ccc1F (centres unmarked) [Compound 268, N-[5-[(dimethylamino)carbonyl]-2-fluorophenyl]-3-(1,1-dimethylethyl)-1-ethyl-4,5-dihydro-1H-pyrazole-5-carboxamide]",pest or weed control at 62 g/ha,"large crabgrass [1]; Digitaria sanguinalis, pre-emergence, 312 h, 62 g ai/ha, preemergence, scale 0 to 100, read-out: Plant response rating, Crabgrass, Large",90%
same,pest or weed control at 125 g/ha,"large crabgrass [1]; Digitaria sanguinalis, pre-emergence, 312 h, 125 g ai/ha, scale 0 (no effect) to 100 (complete control), visual, 12 to 14 days, read-out: Plant response rating, Crabgrass, Large",95%
same,pest or weed control at 250 g/ha,"large crabgrass [1]; Digitaria sanguinalis, pre-emergence, 312 h, 250 g ai/ha, scale 0-100, read-out: Plant response rating, Crabgrass, Large",100%
same,pest or weed control at 500 g/ha,"large crabgrass [1]; Digitaria sanguinalis, pre-emergence, 312 h, 500 g ai/ha, scale 0 to 100 (0 no effect, 100 complete control), visual, 12 to 14 days, read-out: Plant response rating, Crabgrass, Large",100%
same,plant injury at 125 g/ha,"rice; Oryza sativa, pre-emergence, 336 h, 125 g ai/ha, 0 = no effect, 100 = complete control, read-out: Rice plant response rating (0 to 100 scale)",90%
same,plant injury at 500 g/ha,"rice; Oryza sativa, pre-emergence, 336 h, 500 g ai/ha, visual rating, 0 = no effect, 100 = complete control, read-out: Plant response rating, Rice",90%
same,pest or weed control at 62 g/ha,"velvetleaf; Abutilon theophrasti, pre-emergence, 62 g ai/ha, preemergence, scale 0 to 100, read-out: Plant response rating, Velvetleaf",60%
same,pest or weed control at 250 g/ha,"velvetleaf; Abutilon theophrasti, pre-emergence, 250 g ai/ha, scale 0-100, read-out: Plant response rating, Velvetleaf",100%
same,pest or weed control at 500 g/ha,"velvetleaf; Abutilon theophrasti, pre-emergence, 500 g ai/ha, scale 0 to 100 (0 no effect, 100 complete control), visual, 12 to 14 days, read-out: Plant response rating, Velvetleaf",100%
same,pest or weed control at 500 g/ha,"redroot pigweed; post-emergence, Postemergence, 500 g ai/ha, 0 to 100 scale, 0 no effect, 100 complete control, read-out: Pigweed plant response rating",35%
same,pest or weed control at 2000 g/ha,"redroot pigweed; post-emergence, Postemergence, 2000 g ai/ha, 0 to 100 scale, 0 no effect, 100 complete control, read-out: Plant response rating, Pigweed",85%
same,pest or weed control at 2000 g/ha,"redroot pigweed; pre-emergence, Preemergence, 2000 g ai/ha, visual rating, 0 to 100 scale (0 no effect, 100 complete control), read-out: Pigweed plant response rating",100%
same,pest or weed control at 500 g/ha,"redroot pigweed; pre-emergence, preemergence, 500 g ai/ha, visual injury, 0 to 100 scale (0 no effect, 100 complete control), read-out: Pigweed plant response rating",100%
same,pest or weed control at 500 g/ha,"large crabgrass [2]; post-emergence, Postemergence, 500 g ai/ha, 0 to 100 scale, 0 no effect, 100 complete control, read-out: Crabgrass, Large plant response rating",50%
same,pest or weed control at 2000 g/ha,"large crabgrass [2]; post-emergence, Postemergence, 2000 g ai/ha, 0 to 100 scale, 0 no effect, 100 complete control, read-out: Plant response rating, Crabgrass, Large",75%
same,pest or weed control at 2000 g/ha,"large crabgrass [2]; pre-emergence, Preemergence, 2000 g ai/ha, visual rating, 0 to 100 scale (0 no effect, 100 complete control), read-out: Crabgrass, Large plant response rating",100%
same,pest or weed control at 500 g/ha,"large crabgrass [2]; pre-emergence, preemergence, 500 g ai/ha, visual injury, 0 to 100 scale (0 no effect, 100 complete control), read-out: Crabgrass, Large plant response rating",85%
same,pest or weed control at 62 g/ha,"pigweed; Amaranthus retroflexus, pre-emergence, 62 g ai/ha, preemergence, scale 0 to 100, read-out: Plant response rating, Pigweed",100%
same,pest or weed control at 125 g/ha,"pigweed; Amaranthus retroflexus, pre-emergence, 125 g ai/ha, scale 0 (no effect) to 100 (complete control), visual, 12 to 14 days, read-out: Plant response rating, Pigweed",100%
same,pest or weed control at 250 g/ha,"pigweed; Amaranthus retroflexus, pre-emergence, 250 g ai/ha, scale 0-100, read-out: Plant response rating, Pigweed",100%
same,pest or weed control at 500 g/ha,"pigweed; Amaranthus retroflexus, pre-emergence, 500 g ai/ha, scale 0 to 100 (0 no effect, 100 complete control), visual, 12 to 14 days, read-out: Plant response rating, Pigweed",100%
same,pest or weed control at 62 g/ha,"[3]; Helianthus annuus, pre-emergence, 62 g ai/ha, preemergence, scale 0 to 100, read-out: Plant response rating, Sunflower",0%
same,pest or weed control at 250 g/ha,"[3]; Helianthus annuus, pre-emergence, 250 g ai/ha, scale 0-100, read-out: Plant response rating, Sunflower",60%
same,pest or weed control at 500 g/ha,"[3]; Helianthus annuus, pre-emergence, 500 g ai/ha, scale 0 to 100 (0 no effect, 100 complete control), visual, 12 to 14 days, read-out: Plant response rating, Sunflower",90%
same,pest or weed control at 62 g/ha,"goosegrass; Eleusine indica, pre-emergence, 312 h, 62 g ai/ha, preemergence, scale 0 to 100, read-out: Plant response rating, Goosegrass",85%
same,pest or weed control at 125 g/ha,"goosegrass; Eleusine indica, pre-emergence, 312 h, 125 g ai/ha, scale 0 (no effect) to 100 (complete control), visual, 12 to 14 days, read-out: Plant response rating, Goosegrass",90%
same,pest or weed control at 250 g/ha,"goosegrass; Eleusine indica, pre-emergence, 312 h, 250 g ai/ha, scale 0-100, read-out: Plant response rating, Goosegrass",100%
same,pest or weed control at 500 g/ha,"goosegrass; Eleusine indica, pre-emergence, 312 h, 500 g ai/ha, scale 0 to 100 (0 no effect, 100 complete control), visual, 12 to 14 days, read-out: Plant response rating, Goosegrass",100%
CCN(CC)C(=O)c1cccc(NC(=O)c2sc(C(C)(C)C)nc2C)c1 [Compound 199],"Plant response rating, Crabgrass, Large",large crabgrass [1]; [4],10
same,"Plant response rating, Crabgrass, Large",large crabgrass [1]; [5],90
same,"Plant response rating, Crabgrass, Large",large crabgrass [1]; [6],90
same,"Crabgrass, Large plant response rating",large crabgrass [1]; 500 g ai/ha,95
same,Rice plant response rating (0 to 100 scale),"rice; 125 g ai/ha, 0 = no effect, 100 = complete control, preemergence",0
same,"Plant response rating, Rice","rice; 500 g ai/ha, visual rating 0-100, 0 no effect, 100 complete control, preemergence",20
same,"Plant response rating, Velvetleaf",velvetleaf; [4],10
same,"Plant response rating, Velvetleaf",velvetleaf; [5],70
same,"Plant response rating, Velvetleaf",velvetleaf; [6],85
same,Velvetleaf plant response rating,velvetleaf; 500 g ai/ha,85
same,Pigweed plant response rating,redroot pigweed; [7],80
same,"Plant response rating, Pigweed",redroot pigweed; [8],80
same,Pigweed plant response rating,redroot pigweed; [9],100
same,Pigweed plant response rating,redroot pigweed; [10],100
same,"Crabgrass, Large plant response rating",large crabgrass [2]; [7],15
same,"Plant response rating, Crabgrass, Large",large crabgrass [2]; [8],50
same,"Crabgrass, Large plant response rating",large crabgrass [2]; [9],100
same,"Crabgrass, Large plant response rating",large crabgrass [2]; [10],70
same,"Plant response rating, Pigweed",pigweed; [4],100
same,"Plant response rating, Pigweed",pigweed; [5],100
same,"Plant response rating, Pigweed",pigweed; [6],100
same,Pigweed plant response rating,pigweed; 500 g ai/ha,100
same,"Plant response rating, Sunflower",[3]; [4],0
same,"Plant response rating, Sunflower",[3]; [5],0
same,"Plant response rating, Sunflower",[3]; [6],0
same,Sunflower plant response rating,[3]; 500 g ai/ha,0
same,"Plant response rating, Goosegrass",goosegrass; [4],5
same,"Plant response rating, Goosegrass",goosegrass; [5],70
same,"Plant response rating, Goosegrass",goosegrass; [6],90
same,Goosegrass plant response rating,goosegrass; 500 g ai/ha,95
CCN1CCc2c(NC(=O)c3cc(C(C)(C)C)nn3CC)cccc2C1=O [Compound 63],"Plant response rating (0 = no effect, 100 = complete control), Crabgrass, Large","large crabgrass [1]; 62 g ai/ha, preemergence",10
same,"Plant response rating, Crabgrass, Large",large crabgrass [1]; [5],85
same,"Plant response rating, Crabgrass, Large",large crabgrass [1]; [11],90
same,"Crabgrass, Large plant response rating",large crabgrass [1]; 500 g ai/ha,100
same,"Plant response rating, Rice","rice; preemergence, 125 g ai/ha, 0 to 100 scale, 0 is no effect, 100 is complete control",50
same,"Plant response rating, Velvetleaf",velvetleaf; [5],10
same,"Plant response rating, Velvetleaf",velvetleaf; [11],30
same,Velvetleaf plant response rating,velvetleaf; 500 g ai/ha,100
same,"Plant response rating, Pigweed",redroot pigweed; [7],95
same,"Plant response rating, Pigweed",redroot pigweed; [8],100
same,Pigweed plant response rating,redroot pigweed; [12],100
same,Pigweed plant response rating,redroot pigweed; [13],100
same,"Plant response rating, Crabgrass, Large",large crabgrass [2]; [7],40
same,"Plant response rating, Crabgrass, Large",large crabgrass [2]; [8],80
same,"Crabgrass, Large plant response rating",large crabgrass [2]; [12],90
same,"Crabgrass, Large plant response rating",large crabgrass [2]; [13],100
same,"Plant response rating (0 = no effect, 100 = complete control), Pigweed","pigweed; 62 g ai/ha, preemergence",100
same,"Plant response rating, Pigweed",pigweed; [5],100
same,"Plant response rating, Pigweed",pigweed; [11],100
same,Pigweed plant response rating,pigweed; 500 g ai/ha,100
same,"Plant response rating (0 = no effect, 100 = complete control), Sunflower","[3]; 62 g ai/ha, preemergence",0
same,"Plant response rating, Sunflower",[3]; [5],0
same,"Plant response rating, Sunflower",[3]; [11],0
same,Sunflower plant response rating,[3]; 500 g ai/ha,30
same,"Plant response rating (0 = no effect, 100 = complete control), Goosegrass","goosegrass; 62 g ai/ha, preemergence",10
same,"Plant response rating, Goosegrass",goosegrass; [5],45
same,"Plant response rating, Goosegrass",goosegrass; [11],60
same,Goosegrass plant response rating,goosegrass; 500 g ai/ha,90
